In brackets after ≈: the same amount, converted by molar mass.
tested on: M. tuberculosis H37Rv growth inhibition; assay: Mycobacterium tuberculosis H37Rv growth inhibition, putative kinase inhibitor library, confirmatory dose response (AID 2842);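 further: bacteria incubated one week before Alamar blue readout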

| SMILES | IC90 [µg/mL] |
| --- | --- |
| O=C(CN1C(=O)CCC1=O)Nc1nnc(-c2ccc3c(c2)CCCC3)o1 | 27.6 (≈ 78 µM) |
| O=C(Nc1ncc(Cc2cccc(C(F)(F)F)c2)s1)c1cccs1 | 2.92 (≈ 7.93 µM) |
| O=C(Nc1nnc(-c2ccc(F)cc2)o1)c1ccc(Cl)cc1 | 18.3 (≈ 57.5 µM) |
| CS(=O)(=O)Nc1cccc(C2=NN(c3nc(-c4ccccc4)c4cc(Cl)ccc4n3)C(c3ccccc3F)C2)c1 (configuration not stated) | 6.67 (≈ 11.7 µM) |
| O=C(Nc1nnc(-c2ccc(Cl)s2)o1)c1nc2ccccc2s1 | 4.81 (≈ 13.3 µM) |
| Cc1nnc2ccc(-c3cccc(NC(=O)COc4ccc(Cl)cc4)c3)nn12 | 23.5 (≈ 59.6 µM) |
| COc1ccc(-c2nc(N3CCC(C)CC3)nc3n[nH]c(N)c23)cc1 | 2.14 (≈ 6.32 µM) |
| COc1cccc(Nc2cc(C)nc3c(-c4ccccc4)cnn23)c1 | 1.83 (≈ 5.54 µM) |
| Cc1ccc2c(c1)c1nnc(-c3ccc4c(c3)OCO4)c-1cn2Cc1cccc(F)c1 | 3.39 (≈ 8.24 µM) |
| Cc1cccc(C(=O)Nc2nnc(-c3cccnc3)o2)c1 | 8.87 (≈ 31.6 µM) |
| COc1ccc(-c2nnc(NC(=O)c3cc4ccccc4cc3OC)o2)cc1 | 26.3 (≈ 70.2 µM) |
| O=C(Nc1nnc(C2=COCCO2)o1)c1ccc(-c2ccccc2)cc1 | 8.24 (≈ 23.6 µM) |
| CC(C)N1CCc2c(sc(NC(=O)c3ccc(Oc4ccccc4)cc3)c2C(N)=O)C1 | 12.5 (≈ 28.7 µM) |
| O=C(NNc1nc2c(Cl)cccc2s1)c1coc2ccccc2c1=O | 11.1 (≈ 29.9 µM) |
| CCOC(=O)/C=C/CSc1nc2sc3c(c2c(=O)[nH]1)CCCC3 | 12.8 (≈ 36.6 µM) |
| O=C(Nc1nnc(C2=COCCO2)o1)c1cc(Cl)cc(Cl)c1 | 53.7 (≈ 157 µM) |
| CC(=O)OCn1nnc2ccccc2c1=O | 3.33 (≈ 15.2 µM) |
| N#Cc1ccc(C(=O)Nc2nnc(-c3ccc(Br)cc3)o2)cc1 | 7.39 (≈ 20 µM) |
| Cc1ccc(C)c(-c2nnc(NC(=O)Cc3ccccc3)o2)c1 | 18.2 (≈ 59.4 µM) |
| CC(=O)N1CCc2c(sc(NC(=O)c3cccs3)c2C(N)=O)C1 | 3.21 (≈ 9.19 µM) |
| CC(=O)N1CCc2c(sc(NC(=O)c3cccc(C)c3)c2C(N)=O)C1 | 17.1 (≈ 47.8 µM) |
| N/C(=N\OC(=O)c1ccccc1F)c1ccccn1 | 18.7 (≈ 72.2 µM) |
| Nc1ncnc(Sc2nc3ccccc3[nH]2)c1[N+](=O)[O-] | 17.1 (≈ 59.2 µM) |
| Cc1ccccc1C(=O)Nc1nnc(-c2ccc(F)cc2)o1 | < 0.2 |

| SMILES | IC90 [µg/mL] |
| --- | --- |
| O=C(Nc1nc(-c2cccs2)c(C(=O)C(F)(F)F)s1)c1cc(-c2ccccc2)nc2ccccc12 | 24.4 (≈ 47.9 µM) |
| CCOC(=O)c1c(NC(=O)c2ccccc2Br)sc2c1CC(C)(C)NC2(C)C | 8.85 (≈ 19 µM) |
| COc1ccc(NC(=O)c2cccc3nc4ccccc4nc23)c(OC)c1 | 4.07 (≈ 11.3 µM) |
| Cc1ccc(C)c2[nH]c(=O)c(CCNC(=S)NCCn3ccc4ccccc43)cc12 | 3.53 (≈ 8.43 µM) |
| CCCCC(=O)Nc1nnc(-c2ccc3c(c2)CCCC3)o1 | 3.04 (≈ 10.2 µM) |
| CCOC(=O)N1CCc2c(sc(NC(=O)c3ccc(Oc4ccccc4)cc3)c2C(N)=O)C1 | 0.98 (≈ 2.11 µM) |
| O=C(Nc1nnc(-c2cccs2)o1)c1nc2ccccc2s1 | 2.98 (≈ 9.07 µM) |
| O=C(Nc1nnc(-c2ccco2)o1)c1ccc([N+](=O)[O-])cc1 | 35.8 (≈ 119 µM) |
| CCOC(=O)N1CCN(c2ncnc3c2cnn3-c2ccc(C)c(Cl)c2)CC1 | 12.2 (≈ 30.5 µM) |
| c1c2c(cc3sc(N4CCCC4)nc13)OCO2 | < 0.2 |
| O=C(Cc1ccc(F)cc1)N(CCCn1ccnc1)c1nc2ccc(F)cc2s1 | 3.39 (≈ 8.22 µM) |
| COc1ccc(C(=O)Nc2nc3c(s2)CCCC3)c(OC)c1 | 6.13 (≈ 19.3 µM) |
| O=C(Nc1nnc(-c2ccc3c(c2)CCCC3)o1)c1ccc([N+](=O)[O-])o1 | 10.6 (≈ 29.9 µM) |
| CCOc1ccc2nc(N(CCCn3ccnc3)C(=O)Cc3ccc(F)cc3)sc2c1 | 3.05 (≈ 6.96 µM) |
| O=C(Nc1nnc(-c2cccnc2)o1)c1ccccc1Cl | 53.5 (≈ 178 µM) |
| CC(C)CCn1c(NCCc2ccccc2)nc2c1c(=O)n(C)c(=O)n2C | 11 (≈ 29.9 µM) |
| CCOC(=O)N1CCc2c(sc(NC(=O)C3COc4ccccc4O3)c2C(N)=O)C1 (configuration not stated) | 8.19 (≈ 19 µM) |
| Cc1ccc(C)c(-c2nnc(NC(=O)c3cc([N+](=O)[O-])ccc3Cl)o2)c1 | < 0.2 |
| COc1ccccc1-c1cnn2c(NC3CCCCC3)cc(C)nc12 | 13.5 (≈ 40.2 µM) |
| O=C(Nc1nnc(-c2ccco2)o1)C1=COCCO1 | 50.9 (≈ 193 µM) |
| COc1cc2c3nnc(-c4ccc(C)cc4)c-3cn(Cc3cccc(C)c3)c2cc1OC | 28.3 (≈ 66.9 µM) |
| COc1ccc(C(=O)Nc2nnc(-c3cc(C)ccc3C)o2)c(OC)c1 | 13.4 (≈ 38 µM) |
| Nc1c(C(=O)Nc2ccc(Br)cc2)sc2nc3c(c(-c4cccs4)c12)CCCC3 | 5.12 (≈ 10.6 µM) |
| COc1cccc(C(=O)N(CCCn2ccnc2)c2nc3ccc(C)cc3s2)c1OC | 2.63 (≈ 6.02 µM) |

| SMILES | IC90 [µg/mL] |
| --- | --- |
| Cc1c(C)n2c3c(=O)[nH]c(=O)n(C)c3nc2n1-c1ccccc1O | 0.75 (≈ 2.31 µM) |
| COc1ccc(-c2nsc(SCC(=O)NCc3ccco3)n2)cc1 | < 0.2 |
| O=c1[nH]c(N/N=C/c2cccs2)nnc1-c1ccccc1 | 21.6 (≈ 72.5 µM) |
| O=C(Nc1nnc(-c2cc(Cl)ccc2Cl)o1)c1cccs1 | 0.76 (≈ 2.23 µM) |
| Cc1ccc2sc(NNC(=O)c3coc4ccccc4c3=O)nc2c1C | 34.9 (≈ 95.5 µM) |
| O=C(Nc1nnc(-c2ccccc2Cl)o1)c1cccc(Oc2ccccc2)c1 | 0.86 (≈ 2.19 µM) |
| COc1cc(C(=O)Nc2nnc(-c3ccc(C)cc3C)o2)cc(OC)c1OC | 2.53 (≈ 6.6 µM) |
| Cc1ccccc1NCCCn1c(C)cn2c3c(=O)[nH]c(=O)n(C)c3nc12 | 15.4 (≈ 41.9 µM) |
| Cc1cc(C)c2nc(C(F)(F)F)nc(NC(C)CCc3ccccc3)c2c1 (configuration not stated) | 7.61 (≈ 20.4 µM) |
| Cc1ccc(C)c(N2CCN(C(=O)CCCCCn3c(=O)[nH]c4ccsc4c3=O)CC2)c1 | 10.9 (≈ 24 µM) |
| Cc1ccc(C)c(-c2nnc(NC(=O)c3ccc(Cl)s3)o2)c1 | 26.4 (≈ 79.2 µM) |
| COc1ccc2nc(NNC(=O)c3cccc(F)c3)sc2c1 | 15.8 (≈ 49.8 µM) |
| Cc1cc(NC2CCCC2)n2ncc(-c3ccccc3)c2n1 | 9.88 (≈ 33.8 µM) |
| CCOC(=O)N1CCc2c(sc(NC(=O)c3ccc(F)cc3)c2C(N)=O)C1 | 1.89 (≈ 4.83 µM) |
| CC(C)C(=O)Nc1nnc(-c2ccc3c(c2)OCCO3)o1 | 52.3 (≈ 181 µM) |
| Cc1ccc(Nc2nc(N3CCCC3)nc3nccnc23)cc1C | 3.21 (≈ 10 µM) |
| COc1ccccc1C(=O)Nc1nnc(-c2ccc(Cl)cc2)o1 | 3.86 (≈ 11.7 µM) |
| O=C(Nc1nnc(-c2ccccc2Cl)o1)C1=COCCO1 | 4.3 (≈ 14 µM) |
| Cc1ccc2c(c1)=C(c1sc(=O)[nH]c1O)C(=O)N=2 | 22.8 (≈ 87.7 µM) |
| CCS(=O)(=O)c1cccc(C(=O)Nc2nnc(-c3ccc4c(c3)CCCC4)o2)c1 | 16.3 (≈ 39.7 µM) |
| O=C(Nc1ccc(S(=O)(=O)N2CCC(c3nc4ccccc4[nH]3)CC2)cc1)c1cccc(Cl)c1 | 0.86 (≈ 1.74 µM) |
| CSc1cccc(-c2nnc(NC(=O)c3ccc([N+](=O)[O-])s3)o2)c1 | 1.58 (≈ 4.36 µM) |
| Cc1ccc(-n2ncc3c(NCc4cccnc4)ncnc32)cc1C | 6.03 (≈ 18.3 µM) |
| CCCCCOc1ccc(C(=O)Nc2nnc(-c3ccco3)o2)cc1 | 8.78 (≈ 25.7 µM) |

| SMILES | IC90 [µg/mL] |
| --- | --- |
| Cc1c(CCC#N)c(=O)n2c([nH]c3ccccc32)c1C#N | 2.29 (≈ 8.29 µM) |
| CC1CCc2c(sc(Nc3nc4ccc(F)cc4s3)c2C(N)=O)C1 (configuration not stated) | 35.8 (≈ 99 µM) |
| O=C(OCc1ccco1)c1cc2cc(Br)ccc2oc1=O | 16.3 (≈ 46.7 µM) |
| c1ccc2c(c1)CCN(c1nc3cc4c(cc3s1)OCCO4)C2 | 16 (≈ 49.4 µM) |
| COc1cccc2sc(Nc3nc4c(F)cccc4s3)nc12 | 14.5 (≈ 43.6 µM) |
| Cc1ccc(NC(=O)CC2Nc3cccc4cccc(c34)NC2=O)cc1 (configuration not stated) | 61.8 (≈ 179 µM) |
| COc1cccc(-c2nnc(NC(=O)c3ccc(Cl)cc3Cl)o2)c1 | 8.25 (≈ 22.7 µM) |
| CSc1ccc2nc(Nc3nc4ccc(NC(C)=O)cc4s3)sc2c1 | < 0.2 |
| O=C(CSc1c[nH]c2ccccc12)Nc1ccc(Br)cc1 | 3.2 (≈ 8.86 µM) |
| COc1ccc(Nc2nc(N3CCN(Cc4ccccc4)CC3)nc3nccnc23)cc1 | 4.69 (≈ 11 µM) |
| O=c1cnnc(N/N=C/c2cc(Br)ccc2O)[nH]1 | < 0.2 |
| O=C(CSCc1ccc(Cl)c(Cl)c1)Nc1ccc(F)cc1 | 12.9 (≈ 37.4 µM) |
| CCOC(=O)c1c(NC(=O)CCl)sc2c1CCCC2 | 29.8 (≈ 98.8 µM) |
| NC(=O)C1CCN(C2=NC(=O)/C(=C\c3ccc(Cl)cc3Cl)S2)CC1 | < 0.2 |
| COc1ccccc1-c1nnc(NC(=O)c2ccco2)o1 | 13.4 (≈ 46.9 µM) |
| COc1cccc2sc(Nc3nc4c(s3)CCCC4)nc12 | 5.82 (≈ 18.3 µM) |
| CSc1ccc2nc(Nc3nnc(-c4ccc5c(c4)OCCO5)o3)sc2c1 | 15.1 (≈ 38 µM) |
| COc1ccc2nc(N(CCCn3ccnc3)C(=O)c3cccc(OC)c3OC)sc2c1 | 11.3 (≈ 24.9 µM) |
| CCOC(=O)c1sc(Nc2nc3ccc(OC)cc3s2)cc1C | 83.8 (≈ 240 µM) |
| COc1ccc(Nc2c3c4c(cccc4[nH]c2=O)C(=O)c2ccccc2-3)cc1 | 12.4 (≈ 33.7 µM) |
| CCOc1cc(-c2nnc(NC(=O)C3=COCCO3)o2)cc(OCC)c1OCC | 7 (≈ 17.3 µM) |
| OC(CNCc1ccco1)Cn1c2ccc(Cl)cc2c2cc(Cl)ccc21 (configuration not stated) | 1.71 (≈ 4.39 µM) |
| CCOC(=O)COc1ccc2cc(-c3ccc(OC)c(OC)c3)c(=O)oc2c1 | 2.18 (≈ 5.67 µM) |
| N#Cc1ccccc1NC(=O)C(=O)NCCSc1ncc(-c2ccccc2)[nH]1 | 4.48 (≈ 11.4 µM) |

| SMILES | IC90 [µg/mL] |
| --- | --- |
| CCCCC(=O)Nc1nc(-c2ccccc2)c(C(C)=O)s1 | 13.7 (≈ 45.4 µM) |
| CCOC(=O)N1CCc2c(sc(NC(=O)c3ccccc3)c2C(N)=O)C1 | 1.84 (≈ 4.93 µM) |
| COc1cccc2sc(Nc3nnc(-c4cccs4)o3)nc12 | 3.36 (≈ 10.2 µM) |
| COc1ccc(Nc2nc(Nc3cccc(OC)c3)nc3nccnc23)cc1 | 9.86 (≈ 26.3 µM) |
| Fc1cccc2sc(Nc3nc(-c4cccs4)cs3)nc12 | 25.4 (≈ 76 µM) |
| COc1cc2c3nnc(-c4ccc(Cl)cc4)c-3cn(Cc3ccccc3F)c2cc1OC | 22.2 (≈ 49.7 µM) |
| COc1ccc(-c2nnc3c4cc5c(cc4n(Cc4cccc(OC)c4)cc2-3)OCCO5)cc1 | 5.28 (≈ 11.6 µM) |
| O=C(CCOc1ccccc1)Nc1nnc(-c2ccc(Cl)s2)o1 | 13.9 (≈ 39.7 µM) |
| CS(=O)(=O)c1ccc(-c2nnc(NC(=O)c3ccc(Cl)s3)o2)cc1 | 1.67 (≈ 4.35 µM) |
| CN(C)S(=O)(=O)c1ccc(C(=O)Nc2nnc(-c3ccc(Br)cc3)o2)cc1 | 6.69 (≈ 14.8 µM) |
| COC(=O)c1ccc(C(=O)NNc2nc3c(C)cc(C)cc3s2)cc1 | 6.49 (≈ 18.3 µM) |
| N#C/C(=C(\O)c1ccc2c(c1)OCCO2)c1nc2ccccc2s1 | 37.7 (≈ 112 µM) |
| COc1ccc2nc(Nc3nc4c(s3)CCCC4)sc2c1 | 20.7 (≈ 65.1 µM) |
| COc1ccc2nc(N3CCCC3)sc2c1 | 8.36 (≈ 35.7 µM) |
| CCOC(=O)c1ccc2nc(NC(=O)C(C)C)sc2c1 | 19.5 (≈ 66.5 µM) |
| O=C(CCOc1ccccc1)Nc1nnc(-c2ccc3c(c2)OCCO3)o1 | 95.9 (≈ 261 µM) |
| CC(=O)N1CCc2c(sc(NC(=O)c3ccc(C)cc3)c2C(N)=O)C1 | 8.93 (≈ 25 µM) |
| Oc1ccc2ccccc2c1N=Nc1nn[nH]n1 | < 0.2 |
| COc1ccc(C(=O)/C=C2\C(=O)Nc3ccccc32)cc1 | 38.6 (≈ 138 µM) |
| CCS(=O)(=O)c1cccc(C(=O)Nc2nnc(-c3cc(C)ccc3C)o2)c1 | 9.12 (≈ 23.7 µM) |
| O=C(c1ccc(Nc2nc(-c3ccccc3)c3cc(Br)ccc3n2)cc1)N1CCCC1 | 21.1 (≈ 44.6 µM) |
